Experimental data reported in article PMC3431135, “Pharmacological Evaluation and Docking Studies of 3-Thiadiazolyl- and Thioxo-1,2,4-triazolylcoumarin Derivatives as Cholinesterase Inhibitors” (ISRN Pharmacology, 2012).

These molecules were tested against T1, BChE from horse serum (hBChE) (Equus caballus, UniProt P81908) (assay: biochemical). Details: horse serum BChE; mean ± SEM of three experiments; Ki calculated from IC50; substrate BTCCl; read-out: hBChE Ki ± SEM.
T1 construct: butyrylcholinesterase (BChE) (EC 3.1.1.8, from horse serum); purchased Sigma-Aldrich (Steinheim, Germany); host or cells: horse serum (natural source)
T1 sequence (P81908 whole entry): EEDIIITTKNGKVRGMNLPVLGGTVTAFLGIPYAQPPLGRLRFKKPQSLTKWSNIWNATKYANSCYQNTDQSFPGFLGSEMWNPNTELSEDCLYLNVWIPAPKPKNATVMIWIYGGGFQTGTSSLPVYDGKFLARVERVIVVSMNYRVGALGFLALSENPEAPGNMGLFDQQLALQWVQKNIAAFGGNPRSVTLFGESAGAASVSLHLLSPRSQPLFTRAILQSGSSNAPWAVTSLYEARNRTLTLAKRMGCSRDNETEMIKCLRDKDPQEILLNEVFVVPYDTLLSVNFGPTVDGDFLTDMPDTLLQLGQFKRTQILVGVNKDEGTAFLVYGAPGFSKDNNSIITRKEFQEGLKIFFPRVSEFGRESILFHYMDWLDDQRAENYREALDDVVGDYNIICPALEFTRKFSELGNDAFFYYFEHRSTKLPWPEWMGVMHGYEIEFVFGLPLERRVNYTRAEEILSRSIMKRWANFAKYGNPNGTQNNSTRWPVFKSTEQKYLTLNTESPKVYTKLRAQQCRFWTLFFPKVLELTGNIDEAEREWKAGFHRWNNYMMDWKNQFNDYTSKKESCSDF
Format: biochemical
Procedure: (§1) Acetylcholinesterase (AChE) (EC 3.1.1.7, type VI-S from Electric Eel), butyrylcholinesterase (BChE) (EC 3.1.1.8, from horse serum). AChE and BChE were also isolated from rabbit brain and serum, respectively.
(§2) The inhibitory activities of coumarin derivatives were measured quantitatively by Ellman's method and performed with some modifications as in Ingkaninan et al. method by using 96-microliter well plate. Series of newly synthesized coumarin derivatives were tested as AChE and BChE inhibitors. Initially, each compound was dissolved in DMSO (end concentration of DMSO was less than 1% in assay) and tested at a final concentration of 1 mM or 10 μL of DMSO (as negative control) in wells for initial screening. […] Reaction mixture comprised of 50 μL of 3 mM DTNB (5,5′-dithiobis(2-nitrobenzoic acid)) in assay buffer, 10 μL of test compound, and 10 μL of AChE (0.031 IU/mL) or BChE (0.5 IU/mL). This mixture was preincubated at 25°C for 10 min. After preincubation, enzymatic reaction was started by addition of 10 μL of 10 mM MBTCCl (butyrylthiocholine chloride) or ATCI (acetylthiocholine iodide) according to the respective enzyme and mixture was incubated again for 15 min. […] Enzyme dilution buffer consisted of 50 mM Tris-HCl containing 0.1% (w/v) BSA (pH 8). The effect of DMSO on activity of enzyme was subtracted by a negative control containing DMSO, instead of inhibitor. Each concentration was analyzed in triplicate and Ki values were calculated from IC50 values by using a nonlinear curve fitting program PRISM 5.0 (GraphPad, San Diego, California, USA).
In the case of `COc1cccc(-n2c(-c3cc4ccccc4oc3=O)n[nH]c2=S)c1` [Compound 3g, 3-(4-(3-Methoxyphenyl)-5-thioxo-4,5-dihydro-1H-1,2,4-triazol-3-yl)-2H-chromen-2-one], the Ki is reported as 7550 ± 30 nM. With `O=c1oc2ccccc2cc1-c1nnc(Nc2ccccc2Cl)s1` [Compound 4a, 3-(5-(2-Chlorophenylamino)-1,3,4-thiadiazol-2-yl)-2H-chromen-2-one] the Ki was 100 ± 10 nM. `O=c1oc2ccccc2cc1-c1nnc(Nc2cccc(Cl)c2)s1` [Compound 4b, 3-(5-(3-Chlorophenylamino)-1,3,4-thiadiazol-2-yl)-2H-chromen-2-one] was tested, and the Ki was 540 ± 90 nM. For `O=c1oc2ccccc2cc1-c1nnc(Nc2ccc(Cl)cc2)s1` [Compound 4c, 3-(5-(4-Chlorophenylamino)-1,3,4-thiadiazol-2-yl)-2H-chromen-2-one], the Ki was 420 ± 10 nM. In the case of `Cc1cccc(Nc2nnc(-c3cc4ccccc4oc3=O)s2)c1` [Compound 4d, 3-(5-(m-Toluidino)-1,3,4-thiadiazol-2-yl)-2H-chromen-2-one], the Ki is reported as 660 ± 10 nM. With `Cc1ccc(Nc2nnc(-c3cc4ccccc4oc3=O)s2)cc1` [Compound 4e, 3-(5-(p-Toluidino)-1,3,4-thiadiazol-2-yl)-2H-chromen-2-one] the Ki was 280 ± 20 nM. `COc1ccccc1Nc1nnc(-c2cc3ccccc3oc2=O)s1` [Compound 4f, 3-(5-(2-Methoxyphenylamino)-1,3,4-thiadiazol-2-yl)-2H-chromen-2-one] was tested, and the Ki was 230 ± 10 nM. For `COc1cccc(Nc2nnc(-c3cc4ccccc4oc3=O)s2)c1` [Compound 4g, 3-(5-(3-Methoxyphenylamino)-1,3,4-thiadiazol-2-yl)-2H-chromen-2-one], the Ki was 340 ± 10 nM.

What follows are molecules tested against T2, AChE from electrophorus electricus (EeAChE) (Electrophorus electricus, UniProt O42275) (assay: biochemical). Details: mean ± SEM of three experiments; Ki calculated from IC50; substrate ATCI; read-out: EeAChE Ki ± SEM.
T2 construct: Acetylcholinesterase (AChE) (EC 3.1.1.7, type VI-S from Electric Eel); purchased Sigma-Aldrich (Steinheim, Germany) type VI-S; host or cells: electric eel (natural source)
T2 sequence (O42275 24-633): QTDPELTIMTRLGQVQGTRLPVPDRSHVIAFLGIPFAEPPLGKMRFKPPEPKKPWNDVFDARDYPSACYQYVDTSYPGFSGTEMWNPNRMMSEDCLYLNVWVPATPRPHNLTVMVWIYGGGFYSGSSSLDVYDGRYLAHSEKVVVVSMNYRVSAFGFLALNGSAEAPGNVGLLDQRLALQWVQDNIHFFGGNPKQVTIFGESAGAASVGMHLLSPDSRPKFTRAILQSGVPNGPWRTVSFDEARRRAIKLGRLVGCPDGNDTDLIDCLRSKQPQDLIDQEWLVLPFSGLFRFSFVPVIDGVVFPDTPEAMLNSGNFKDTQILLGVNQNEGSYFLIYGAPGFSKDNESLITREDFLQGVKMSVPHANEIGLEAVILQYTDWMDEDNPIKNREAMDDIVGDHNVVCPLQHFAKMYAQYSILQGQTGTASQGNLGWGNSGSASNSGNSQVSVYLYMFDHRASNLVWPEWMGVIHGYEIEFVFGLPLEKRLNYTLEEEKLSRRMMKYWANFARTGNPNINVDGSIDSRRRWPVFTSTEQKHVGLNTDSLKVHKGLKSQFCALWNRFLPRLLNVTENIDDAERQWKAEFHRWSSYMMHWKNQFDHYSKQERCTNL
Procedure: as §1, §2
`COc1cccc(-n2c(-c3cc4ccccc4oc3=O)n[nH]c2=S)c1` [Compound 3g, 3-(4-(3-Methoxyphenyl)-5-thioxo-4,5-dihydro-1H-1,2,4-triazol-3-yl)-2H-chromen-2-one] showed a Ki of 980 ± 340 nM. `O=c1oc2ccccc2cc1-c1nnc(Nc2ccccc2Cl)s1` [Compound 4a, 3-(5-(2-Chlorophenylamino)-1,3,4-thiadiazol-2-yl)-2H-chromen-2-one] gave a Ki of 5750 ± 780 nM. With `O=c1oc2ccccc2cc1-c1nnc(Nc2cccc(Cl)c2)s1` [Compound 4b, 3-(5-(3-Chlorophenylamino)-1,3,4-thiadiazol-2-yl)-2H-chromen-2-one] the Ki was 280 ± 70 nM. For `O=c1oc2ccccc2cc1-c1nnc(Nc2ccc(Cl)cc2)s1` [Compound 4c, 3-(5-(4-Chlorophenylamino)-1,3,4-thiadiazol-2-yl)-2H-chromen-2-one], the Ki was 48600 ± 4400 nM. Work on `Cc1cccc(Nc2nnc(-c3cc4ccccc4oc3=O)s2)c1` [Compound 4d, 3-(5-(m-Toluidino)-1,3,4-thiadiazol-2-yl)-2H-chromen-2-one] yielded a Ki of 28000 ± 1630 nM. With `Cc1ccc(Nc2nnc(-c3cc4ccccc4oc3=O)s2)cc1` [Compound 4e, 3-(5-(p-Toluidino)-1,3,4-thiadiazol-2-yl)-2H-chromen-2-one] the Ki was 6190 ± 290 nM. In the case of `COc1ccccc1Nc1nnc(-c2cc3ccccc3oc2=O)s1` [Compound 4f, 3-(5-(2-Methoxyphenylamino)-1,3,4-thiadiazol-2-yl)-2H-chromen-2-one], the Ki is reported as 7160 ± 10 nM. Molecule `COc1cccc(Nc2nnc(-c3cc4ccccc4oc3=O)s2)c1` [Compound 4g, 3-(5-(3-Methoxyphenylamino)-1,3,4-thiadiazol-2-yl)-2H-chromen-2-one] has a Ki of 8260 ± 10 nM.

What follows are molecules tested on AChE (assay: Kinetic characterization of AChE inhibition (Lineweaver-Burk)). Details: Lineweaver-Burk plots; inhibitor 0–100 nM; substrate ATCI.
Format: biochemical
Procedure: (§3) […]. […] As Km value was increasing and value of Vmax remained almost same in the presence or absence of inhibitor, indication of competitive type of inhibitory mechanism against AChE and BChE.
(§4) Kinetic characterization of AChE and BChE was performed by using Ellman's method. […]. Enzyme kinetic characterization studies were performed under same incubation conditions as described above by using ATCI and BTCCl as substrates and DTNB was used as chromophoric reagent. A parallel control with no inhibitor in the mixture was added for comparison. Each concentration was analyzed in triplicate; and Lineweaver-Burk (1/V versus 1/[S]) plot was constructed using Prism software.
For `O=c1oc2ccccc2cc1-c1nnc(Nc2cccc(Cl)c2)s1` [Compound 4b, 3-(5-(3-Chlorophenylamino)-1,3,4-thiadiazol-2-yl)-2H-chromen-2-one], the “Type of inhibition of AChE” value was “competitive inhibitor”.

These molecules were tested on BChE (assay: Kinetic characterization of BChE inhibition (Lineweaver-Burk)). Details: Lineweaver-Burk plots; inhibitor 0–5 nM; substrate BTCCl.
Format: biochemical
Procedure: as §3, §4
For `O=c1oc2ccccc2cc1-c1nnc(Nc2cccc(Cl)c2)s1` [Compound 4b, 3-(5-(3-Chlorophenylamino)-1,3,4-thiadiazol-2-yl)-2H-chromen-2-one], the “Type of inhibition of BChE” value was “competitive inhibitor”.

What follows are molecules tested against T3, BChE from rabbit serum (rBChE) (Oryctolagus cuniculus, UniProt P21927) (assay: biochemical). Details: rabbit serum BChE; mean ± SEM of three experiments; Ki calculated from IC50; substrate BTCCl; read-out: rBChE Ki ± SEM.
T3 construct: BChE was obtained from rabbit blood serum by applying the techniques of centrifugation; from tissue; host or cells: rabbit blood serum
T3 sequence (P21927 9-581): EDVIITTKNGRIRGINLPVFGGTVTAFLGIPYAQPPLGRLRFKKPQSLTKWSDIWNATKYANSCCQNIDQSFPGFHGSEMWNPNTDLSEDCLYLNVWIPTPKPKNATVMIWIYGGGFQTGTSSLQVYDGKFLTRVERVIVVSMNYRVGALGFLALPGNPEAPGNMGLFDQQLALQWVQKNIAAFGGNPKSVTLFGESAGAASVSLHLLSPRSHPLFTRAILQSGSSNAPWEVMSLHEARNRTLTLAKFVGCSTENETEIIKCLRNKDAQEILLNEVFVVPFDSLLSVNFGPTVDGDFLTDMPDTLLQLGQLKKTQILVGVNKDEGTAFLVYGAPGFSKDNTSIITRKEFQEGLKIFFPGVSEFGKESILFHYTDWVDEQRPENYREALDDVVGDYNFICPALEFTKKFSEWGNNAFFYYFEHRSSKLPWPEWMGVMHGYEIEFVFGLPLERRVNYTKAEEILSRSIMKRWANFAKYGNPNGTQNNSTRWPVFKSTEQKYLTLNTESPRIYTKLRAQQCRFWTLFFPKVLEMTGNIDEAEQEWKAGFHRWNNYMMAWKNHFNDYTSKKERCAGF
Procedure: as §1
(§5) AChE was isolated from rabbit brain. Heads were decapitated and brains were thawed and homogenized for 30 sec in 2.5 volumes of 1 mM EDTA, 0.32 M ice cold sucrose, 10 μM tetracain (pH7.0). The homogenates were centrifuged at 105,000 ×g for 60 min (4°C). The supernatants were removed and pellets were again homogenized in same volume of 0.2% triton phosphate buffer. After centrifugation, the supernatants were again removed and pellets were rehomogenized for 10 sec in 2.5 volumes of 1% triton phosphate buffer. […] BChE was obtained from rabbit blood serum by applying the techniques of centrifugation. The purified enzymes were stored at –80°C.
as §2
With `COc1cccc(-n2c(-c3cc4ccccc4oc3=O)n[nH]c2=S)c1` [Compound 3g, 3-(4-(3-Methoxyphenyl)-5-thioxo-4,5-dihydro-1H-1,2,4-triazol-3-yl)-2H-chromen-2-one] the Ki was 22100 ± 200 nM. `O=c1oc2ccccc2cc1-c1nnc(Nc2ccccc2Cl)s1` [Compound 4a, 3-(5-(2-Chlorophenylamino)-1,3,4-thiadiazol-2-yl)-2H-chromen-2-one] was tested, and the Ki was 1390 ± 20 nM. In the case of `O=c1oc2ccccc2cc1-c1nnc(Nc2cccc(Cl)c2)s1` [Compound 4b, 3-(5-(3-Chlorophenylamino)-1,3,4-thiadiazol-2-yl)-2H-chromen-2-one], the Ki is reported as 2260 ± 20 nM. `O=c1oc2ccccc2cc1-c1nnc(Nc2ccc(Cl)cc2)s1` [Compound 4c, 3-(5-(4-Chlorophenylamino)-1,3,4-thiadiazol-2-yl)-2H-chromen-2-one] was tested, and the Ki was 350 ± 10 nM. `Cc1cccc(Nc2nnc(-c3cc4ccccc4oc3=O)s2)c1` [Compound 4d, 3-(5-(m-Toluidino)-1,3,4-thiadiazol-2-yl)-2H-chromen-2-one] showed a Ki of 510 ± 10 nM. `Cc1ccc(Nc2nnc(-c3cc4ccccc4oc3=O)s2)cc1` [Compound 4e, 3-(5-(p-Toluidino)-1,3,4-thiadiazol-2-yl)-2H-chromen-2-one] gave a Ki of 460 ± 10 nM. In the case of `COc1ccccc1Nc1nnc(-c2cc3ccccc3oc2=O)s1` [Compound 4f, 3-(5-(2-Methoxyphenylamino)-1,3,4-thiadiazol-2-yl)-2H-chromen-2-one], the Ki is reported as 1360 ± 30 nM. `COc1cccc(Nc2nnc(-c3cc4ccccc4oc3=O)s2)c1` [Compound 4g, 3-(5-(3-Methoxyphenylamino)-1,3,4-thiadiazol-2-yl)-2H-chromen-2-one] gave a Ki of 1520 ± 30 nM.

These molecules were tested against T4, rabbit AChE (rAChE), isolated from rabbit brain (Oryctolagus cuniculus, UniProt Q29499) (assay: biochemical). Details: mean ± SEM of three experiments; Ki calculated from IC50; substrate ATCI; read-out: rAChE Ki ± SEM.
T4 construct: AChE was isolated from rabbit brain; from tissue; host or cells: rabbit brain
T4 sequence (Q29499 2-584): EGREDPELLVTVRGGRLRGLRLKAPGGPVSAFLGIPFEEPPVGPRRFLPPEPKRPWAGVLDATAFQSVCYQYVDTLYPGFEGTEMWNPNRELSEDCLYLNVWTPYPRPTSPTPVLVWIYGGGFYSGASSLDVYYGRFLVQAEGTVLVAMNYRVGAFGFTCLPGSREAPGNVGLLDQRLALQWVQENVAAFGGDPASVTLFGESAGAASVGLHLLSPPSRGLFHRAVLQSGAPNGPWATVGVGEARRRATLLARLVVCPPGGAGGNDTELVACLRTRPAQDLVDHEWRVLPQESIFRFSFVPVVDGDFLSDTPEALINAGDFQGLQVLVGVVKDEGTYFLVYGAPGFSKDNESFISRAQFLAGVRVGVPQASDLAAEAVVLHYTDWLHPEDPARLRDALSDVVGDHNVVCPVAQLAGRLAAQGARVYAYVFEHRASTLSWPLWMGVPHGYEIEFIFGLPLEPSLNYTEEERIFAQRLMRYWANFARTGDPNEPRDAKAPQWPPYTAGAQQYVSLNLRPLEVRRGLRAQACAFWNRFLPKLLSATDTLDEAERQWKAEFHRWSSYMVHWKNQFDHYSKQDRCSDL
Procedure: as §1, §5, §2
Molecule `COc1cccc(-n2c(-c3cc4ccccc4oc3=O)n[nH]c2=S)c1` [Compound 3g, 3-(4-(3-Methoxyphenyl)-5-thioxo-4,5-dihydro-1H-1,2,4-triazol-3-yl)-2H-chromen-2-one] has a Ki of 46 ± 2 nM. With `O=c1oc2ccccc2cc1-c1nnc(Nc2ccccc2Cl)s1` [Compound 4a, 3-(5-(2-Chlorophenylamino)-1,3,4-thiadiazol-2-yl)-2H-chromen-2-one] the Ki was 31 ± 8 nM. For `O=c1oc2ccccc2cc1-c1nnc(Nc2cccc(Cl)c2)s1` [Compound 4b, 3-(5-(3-Chlorophenylamino)-1,3,4-thiadiazol-2-yl)-2H-chromen-2-one], the Ki was 28 ± 2 nM. `O=c1oc2ccccc2cc1-c1nnc(Nc2ccc(Cl)cc2)s1` [Compound 4c, 3-(5-(4-Chlorophenylamino)-1,3,4-thiadiazol-2-yl)-2H-chromen-2-one] showed a Ki of 240 ± 21 nM. `Cc1cccc(Nc2nnc(-c3cc4ccccc4oc3=O)s2)c1` [Compound 4d, 3-(5-(m-Toluidino)-1,3,4-thiadiazol-2-yl)-2H-chromen-2-one] was tested, and the Ki was 17 ± 2 nM. In the case of `Cc1ccc(Nc2nnc(-c3cc4ccccc4oc3=O)s2)cc1` [Compound 4e, 3-(5-(p-Toluidino)-1,3,4-thiadiazol-2-yl)-2H-chromen-2-one], the Ki is reported as 561 ± 22 nM. Work on `COc1ccccc1Nc1nnc(-c2cc3ccccc3oc2=O)s1` [Compound 4f, 3-(5-(2-Methoxyphenylamino)-1,3,4-thiadiazol-2-yl)-2H-chromen-2-one] yielded a Ki of 81 ± 1 nM. In the case of `COc1cccc(Nc2nnc(-c3cc4ccccc4oc3=O)s2)c1` [Compound 4g, 3-(5-(3-Methoxyphenylamino)-1,3,4-thiadiazol-2-yl)-2H-chromen-2-one], the Ki is reported as 21 ± 1 nM.
